Results reported in patent US8859819B2, “Sulphurated derivatives of resorcinol, preparation of same and cosmetic uses thereof” (Pierre Fabre Dermo-Cosmetique, priority 2009, dated 2014).
Values after ≈ are worked out from the molar mass of the structure shown.

What was measured:
[1] = biological target: T1, mushroom tyrosinase (Agaricus bisporus, UniProt C7FF04); experiment: Tyrosinase inhibition test (in vitro acellular depigmenting activity); assay type: biochemical; details: class symbol; assay from 250 to 150 μM; overall tyrosinase activity (MPMOg), L-tyrosine substrate
T1 construct: purchased Sigma T-3824
T1 sequence (C7FF04 1-392 limits assumed): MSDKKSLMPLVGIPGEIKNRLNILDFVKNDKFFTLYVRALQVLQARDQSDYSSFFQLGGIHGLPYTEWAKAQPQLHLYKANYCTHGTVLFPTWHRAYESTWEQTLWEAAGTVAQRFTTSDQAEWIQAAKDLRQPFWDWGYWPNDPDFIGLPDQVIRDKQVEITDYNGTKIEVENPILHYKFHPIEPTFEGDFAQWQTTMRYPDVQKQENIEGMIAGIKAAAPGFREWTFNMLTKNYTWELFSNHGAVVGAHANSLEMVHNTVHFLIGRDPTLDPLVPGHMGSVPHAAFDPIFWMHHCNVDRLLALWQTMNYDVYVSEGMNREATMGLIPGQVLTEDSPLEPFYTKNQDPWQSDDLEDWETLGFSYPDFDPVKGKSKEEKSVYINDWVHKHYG
Text: A) Determination of the Depigmenting Activity in an in vitro Acellular Test: Tyrosinase Inhibition Test)
This test is used to evaluate the depigmenting activity of the molecules tested. Tyrosinase is a limiting enzyme in melanogenesis.
It belongs to the family of oxydoreductases. It has in particular the function: monophenol monooxygenase (MPMO) and polyphenol oxidase (PPO).
It is synthesised at the level of the melanocytes. It is activated during its migration towards melanosome […]. It transforms tyrosine into DOPA then dopaquinone, which leads in fine to a polymerisation, i.e. a production of pigments (see diagram below).
The substrate: L-tyrosine, is transformed into L-DOPA by the monophenol mono oxygenase function which is transformed by the polyphenol oxidase function from tyrosinase into dopaquinone. The latter is going to self-oxidise into dopachrome which is measured by spectrophotometry at 490 nm.
More precisely, it is the overall tyrosinase activity (MPMOg) which is measured since it is the dopachrome in fine that is assayed. Thus the products tested on MPMOg (=measurement of the activity on PPO and MPMO) can cumulate the inhibition of the 2 functions, • inhibiting uniquely the MPMO function stricto sensus (transformation of tyrosine into DOPA) as a complement to the PPO test, • could inhibit PPO uniquely. General Experimental Conditions:

[2] = test system: B16-F10 cells; experiment: Melanin assay test in B16-F10 cells; assay type: cell-based, murine; details: Mus musculus, B16-F10, 72 h; read-out: B16 activity results -% at X μM
Procedure: B) Melanin Assay Test in B16-F10 Cells:
This involves a test of measuring the synthesis of melanin by colorimetric assay on a murine melanoma cell line: the B16-F10 line. This test makes it possible to evaluate the depigmenting power of active ingredients.
The B16-F10 cells are cultured in 96-well plates in DMEM medium supplemented with FCS (foetal calf serum), and incubated for 24 hours at 37° C., 5% CO2. The cells are then stimulated with 0.1 μM α-MSH (to stimulate the synthesis of melanin, the stimulation observed is around 150%) and treated for 72 hours with the active ingredients to be tested. Each concentration of active ingredient is tested at least in triplicate. The total melanin followed by the intracellular melanin dissolved in the lysis buffer are then assayed by absorbance reading at 405 nm. The total proteins are assayed in the lysate and the results are expressed in mg melanin/mg proteins. The percentage of activity is calculated as follows: […]
A negative value indicates an inhibition, whereas a positive value indicates an induction of the synthesis of melanin.
• B16-F10 cell line between P10 and P20 (murine melanocytes) (ATCC, CRL-6475)
Reagents: • DMEM without phenol red (GibcoBRL, 31053-028), 200 mM Glutamax-I Supplement (GibcoBRL, 35050-038), D-PBS (GibcoBRL, 14190-094), Foetal calf serum (Invitrogen, 10270-098), Trypsine-EDTA (GibcoBRL, 25300-054), NaOH (Sigma, S8045-500G), DMSO (Sigma, 471267-1L), Nle, Phe—Melanocyte Stimulating Hormone (Sigma, M-8764), Melanin (Sigma, M-0418), BCA-Copper (Sigma, B9643 and C2284), BSA (Sigma, P0914) C) Test for the Study of the Antioxidant Capacity by Chemiluminescence (Photochem Analytik Jena) Principle: […]

[3] = Antioxidant capacity by chemiluminescence (Photochem Analytik Jena); details: for μg of sample for 1 μg of Trolox: Trolox equivalent, lower = stronger antioxidant
Procedure: This test is used to determine the antioxidant capacity of the molecules. It is a method that generates free radicals by a photochemical signal. The intensity of the oxidation is 1000 times greater than that obtained under normal conditions.
The detection is carried out by chemiluminescence. It enables the evaluation of hydrosoluble and liposoluble anti-oxidant molecules or extracts.
The results are expressed respectively in equivalent quantity of vitamin C or Trolox (6-hydroxy-2,5,7,8-tetramethylchroman-2-carboxylic acid). The sensitivity is of the order of a nanomole.
The antioxidant activity studied in this test represents the capacity to trap specifically superoxide anions by chemiluminescence.
The quantified results are expressed in Trolox equivalent (standard), i.e. in “μg of product for 1 μg of Trolox”. This signifies that a quantity×of sample is needed to obtain an activity equivalent to the activity detected for 1 μg of standard. It is an anti-oxidant power relative to a reference, which makes it possible to disregard the concentration tested.
The superoxide radical: 02^0− is generated by a photochemical reaction: L+hv (UV)+O2→L*O2→L^0++O2^0−
A part of the superoxide anions is quenched by the anti-oxidants. The remaining free radicals are quantified by chemiluminescence. L^0++O2^0−→N2+AP*^2−→AP^2−+hv (luminescence)

[4] = Protection of linoleic acid following a UV stress (Fenton conditions, MDA-TBA assay); set-up: % Protection Linoleic acid under UV/Fenton: concentration or dose not given beside the values; details: UV + H2O2 + iron II
Text: D) Test of Protection of Linoleic Acid Following a UV Stress. Target: Protection of Linoleic Acid Under Fenton Conditions, UV Irradiation Linoleic acid belongs to the family of polyunsaturated fatty acids (PUFA) (AGPI). Sensitive to oxidation, linoleic acid is a favoured target for oxygenated free radicals (OFR) in biological media. When biological membranes are exposed to an oxidative stress, the components the most affected are the phospholipids constituted of PUFA and cholesterol. Their degradation leads to lipidic peroxidation and generally to destructuring. Lipidic peroxidation is a self-catalysing process which generally involves OFR. Lipidic peroxidation is in part responsible for skin ageing. The method employed to evaluate lipid peroxidation is based on the coupling of thiobarbituric acid (TBA) and secondary degradation products leading to coloured compounds detectable by spectrofluorometry. The essential secondary compound of final degradation is malondialdehyde, MDA. MDA is a carcinogenic and mutagenic aldehyde, it acts on proteins and DNA. The sample to be tested is placed in contact with linoleic acid in a weight/weight ratio. The sample undergoes an MED (Minimal Erythemal Dose) irradiation under Fenton conditions, namely in the presence of H202 and iron II in a solar simulator. Following irradiation, the reaction mixture is taken up in methanol and derivatised at 90° C. with TBA. Chromogene, the MDA-TBA complex, representative of the equimolar production of MDA is assayed by fluorimetry (excitation at 525 nm, emission at 549 nm). The results are expressed in fluorescence units, as a function of a MDA-TBA control range then expressed as concentration of the MDA-TBA complex. Then, the percentage of the starting MDA/linoleic acid (LA) ratio is determined. Then the percentage of protection of linoleic acid is determined. The product assay is expressed as weight/weight ratio, in other words in weight percentage with respect to the total quantity of linoleic acid. The maximal MDA level is determined by the condition UV+H202+iron II (F). The percentage of protection of linoleic acid represents: the % ratio of MDA under maximal stress conditions untreated over the % of MDA under stress conditions treated by the product.

[5] = test system: P. acnes IP53.117 ATCC6919; experiment: Minimal inhibitory concentration (MIC), microdilution; assay type: cell-based, Propionibacterium acnes; details: for MIC: Cutibacterium acnes, P. acnes IP53.117 ATCC6919
Procedure: (§1) E) Determination of the Minimal Inhibitory Concentration (MIC): This test is used to determine the antibacterial activity of a compound. Tests are carried out with 4 bacterial strains using the principle of microdilution. The MIC are determined by micromethod in liquid medium. The successive dilutions according to the products tested in the culture broth (Trypcase soy) are carried out on 96 well microplates in a final volume of 0.1 ml. The wells are seeded with 0.01 ml of bacterial suspensions titrated at around 10^7 UFC/ml. The microplates are incubated under optimal growth conditions and the MIC is read visually.

[6] = test system: Staphylococcus aureus IP4.83 ATCC6538; experiment: as above; assay type: cell-based
Procedure: as §1

[7] = test system: Staphylococcus epidermidis IP6821; experiment: as above; assay type: cell-based
Procedure: as §1

[8] = test system: Escherichia coli IP53126 ATCC8739; experiment: as above; assay type: cell-based
Procedure: as §1

[9] = biological target: T1, mushroom tyrosinase; experiment: Tyrosinase inhibition test (in vitro acellular depigmenting activity); assay type: biochemical; details: polyphenol oxidase (PPO) function; reference molecules for the test

Row | SMILES | MIC [5] | MIC [6] | MIC [7] | MIC [8] | IC50 [9] | Tyrosinase depigmenting activity result [1] | inhibition at 20 µM [2] | μg of sample for 1 μg of Trolox [3] | % Protection Linoleic acid under UV/Fenton [4] | inhibition at 10 µM [2] | antibacterial activity against Propionibacterium acnes (in words) [5] | Activity (antioxidant, interpretation scale) ([3]; reference products of the interpretation scale)
1 | CCCCOc1cc(O)ccc1Sc1ccc(O)cc1O [Example 5, 4-(2-butoxy-4-hydroxyphenylthio)benzene-1,3-diol] | 3 µg/mL (≈ 9.79 µM) | 6 µg/mL (≈ 19.6 µM) | 3 µg/mL (≈ 9.79 µM) | – | – | + + + | 27% | 2.8 μg of sample for 1 μg of Trolox | 89% | – | – | –
2 | CCCCCCCCCCOc1cc(O)ccc1Sc1ccc(O)cc1O [Example 12, 4-(2-(decyloxy)-4-hydroxyphenylthio)benzene-1,3-diol] | 0.09 µg/mL (≈ 0.23 µM) | 0.78 µg/mL (≈ 2 µM) | 0.39 µg/mL (≈ 0.999 µM) | 780 µg/mL (≈ 2000 µM) | – | – | – | 3.4 μg of sample for 1 μg of Trolox | 96% | – | strong antibacterial activity | –

Further lines, with some results ahead:

Row | MIC [5] | MIC [6] | MIC [7] | MIC [8] | IC50 [9] | SMILES | Tyrosinase depigmenting activity result [1] | inhibition at 20 µM [2] | μg of sample for 1 μg of Trolox [3] | % Protection Linoleic acid under UV/Fenton [4] | inhibition at 10 µM [2] | antibacterial activity against Propionibacterium acnes (in words) [5] | Activity (antioxidant, interpretation scale) ([3]; reference products of the interpretation scale)
3 | 0.09 µg/mL (≈ 0.248 µM) | 0.78 µg/mL (≈ 2.15 µM) | 0.39 µg/mL (≈ 1.08 µM) | 390 µg/mL (≈ 1080 µM) | – | CCCCCCCCOc1cc(O)ccc1Sc1ccc(O)cc1O [Example 7, 4-(4-hydroxy-2-(octyloxy)phenylthio)benzene-1,3-diol] | + + + | – | 3.4 μg of sample for 1 μg of Trolox | 92% | 50% | strong antibacterial activity | –
4 | 90 µg/mL (≈ 190 µM) | 190 µg/mL (≈ 400 µM) | 156 µg/mL (≈ 329 µM) | – | – | CCCCCCCCCCCCCCCCOc1cc(O)ccc1Sc1ccc(O)cc1O [Example 13, 4-(2-(hexadecyloxy)-4-hydroxyphenylthio)benzene-1,3-diol] | – | – | 5.7 μg of sample for 1 μg of Trolox | 95% | – | – | –
5 | – | – | – | – | 20 to 40 µM | O=C1O[C@H]([C@@H](O)CO)C(O)=C1O [Vitamin C, reference compound] | – | – | – | – | – | – | Very good (0.1 to 3.0)
